Test results published in the NIST ThermoML archive (doi:10.1016/j.jct.2005.04.018).

Details: Liquid; for speed of sound: Linear variable-path acoustic interferometer; for mass density: Vibrating tube method

CCCC[n+]1ccn(C)c1.O=S(=O)([N-]S(=O)(=O)C(F)(F)F)C(F)(F)F
Details	mass density [kg/m3]	speed of sound [m/s]
283.15 K, 100 kPa	–	1264.5
283.15 K, 5090 kPa	–	1280.8
283.15 K, 9980 kPa	–	1296.8
283.15 K, 20020 kPa	–	1327.9
283.15 K, 29950 kPa	–	1357.3
283.15 K, 44830 kPa	–	1398.7
283.15 K, 59710 kPa	–	1437.5
283.15 K, 79700 kPa	–	1486.8
283.15 K, 98920 kPa	–	1531.3
283.15 K, 124410 kPa	–	1586.6
283.15 K, 151000 kPa	–	1640.5
293.15 K, 100 kPa	–	1238.1
293.15 K, 5000 kPa	–	1254.6
293.15 K, 10020 kPa	–	1271.2
293.15 K, 20010 kPa	–	1302.5
293.15 K, 59650 kPa	–	1411.8
293.15 K, 99720 kPa	–	1505.9
293.15 K, 151200 kPa	–	1611.9
298.15 K, 100 kPa	1437.04	–
298.15 K, 5000 kPa	1440.78	–
298.15 K, 7460 kPa	1442.64	–
298.15 K, 9920 kPa	1444.45	–
298.15 K, 12380 kPa	1446.22	–
298.15 K, 14840 kPa	1447.99	–
298.15 K, 17300 kPa	1449.71	–
298.15 K, 19760 kPa	1451.41	–
298.15 K, 22210 kPa	1453.09	–
298.15 K, 24670 kPa	1454.75	–
298.15 K, 27130 kPa	1456.4	–
298.15 K, 29590 kPa	1458.04	–
298.15 K, 32050 kPa	1459.61	–
298.15 K, 34510 kPa	1461.19	–
298.15 K, 36970 kPa	1462.78	–
298.15 K, 39430 kPa	1464.31	–
298.15 K, 41880 kPa	1465.81	–
298.15 K, 44340 kPa	1467.33	–
298.15 K, 46800 kPa	1468.8	–
298.15 K, 49260 kPa	1470.28	–
298.15 K, 51720 kPa	1471.69	–
298.15 K, 54180 kPa	1473.13	–
298.15 K, 56640 kPa	1474.55	–
298.15 K, 59100 kPa	1475.94	–
303.14 K, 100 kPa	1432.49	–
303.14 K, 5000 kPa	1436.13	–
303.14 K, 7460 kPa	1437.93	–
303.14 K, 9920 kPa	1439.73	–
303.14 K, 12380 kPa	1441.51	–
303.14 K, 14840 kPa	1443.23	–
303.14 K, 17300 kPa	1444.96	–
303.14 K, 19760 kPa	1446.65	–
303.14 K, 22210 kPa	1448.37	–
303.14 K, 24670 kPa	1449.99	–
303.14 K, 27130 kPa	1451.64	–
303.14 K, 29590 kPa	1453.25	–
303.14 K, 32050 kPa	1454.87	–
303.14 K, 34510 kPa	1456.47	–
303.14 K, 36970 kPa	1458.05	–
303.14 K, 39430 kPa	1459.6	–
303.14 K, 41880 kPa	1461.17	–
303.14 K, 44340 kPa	1462.67	–
303.14 K, 46800 kPa	1464.2	–
303.14 K, 49260 kPa	1465.69	–
303.14 K, 51720 kPa	1467.16	–
303.14 K, 54180 kPa	1468.67	–
303.14 K, 56640 kPa	1470.14	–
303.14 K, 59100 kPa	1471.59	–
303.15 K, 100 kPa	–	1217.5
303.15 K, 5030 kPa	–	1234
303.15 K, 10000 kPa	–	1250.7
303.15 K, 20030 kPa	–	1282.8
303.15 K, 59720 kPa	–	1393.5
303.15 K, 98960 kPa	–	1485.9
303.15 K, 150840 kPa	–	1592.9
308.09 K, 100 kPa	1427.92	–
308.09 K, 5000 kPa	1431.5	–
308.09 K, 7460 kPa	1433.28	–
308.09 K, 9920 kPa	1435.07	–
308.09 K, 12380 kPa	1436.81	–
308.09 K, 14840 kPa	1438.55	–
308.09 K, 17300 kPa	1440.27	–
308.09 K, 19760 kPa	1441.96	–
308.09 K, 22210 kPa	1443.64	–
308.09 K, 24670 kPa	1445.32	–
308.09 K, 27130 kPa	1446.94	–
308.09 K, 29590 kPa	1448.61	–
308.09 K, 32050 kPa	1450.21	–
308.09 K, 34510 kPa	1451.8	–
308.09 K, 36970 kPa	1453.43	–
308.09 K, 39430 kPa	1454.99	–
308.09 K, 41880 kPa	1456.59	–
308.09 K, 44340 kPa	1458.14	–
308.09 K, 46800 kPa	1459.69	–
308.09 K, 49260 kPa	1461.21	–
308.09 K, 51720 kPa	1462.74	–
308.09 K, 54180 kPa	1464.26	–
308.09 K, 56640 kPa	1465.8	–
308.09 K, 59100 kPa	1467.28	–
313.15 K, 100 kPa	1422.99	1194.5
313.15 K, 5000 kPa	1426.56	–
313.15 K, 5010 kPa	–	1211.5
313.15 K, 7460 kPa	1428.4	–
313.15 K, 9920 kPa	1430.14	–
